Data taken from article PMC9203742 (Nature Communications, 2022).
Values joined by “and” are separate entries in the source; they are usually repeats but may differ in a detail not shown here. Equal entries are not always repeated.

How the values were obtained:
WT mGlu1 = molecular target: T1, WT mGlu1 (Rattus norvegicus, UniProt P23385); format: cell-based; further: test concentration or dose not given here
T1 construct: expressed in transfected cells; host or cells: HEK293

mGlu1 P58H/N264H mutant = molecular target: T2, mGlu1 P58H/N264H mutant (Rattus norvegicus, UniProt P23385, N264H/P58H); experiment: Fura-2 Ca2+ imaging in HEK293 cells expressing mGlu1 P58H/N264H; format: cell-based
T2 construct: expressed in transfected cells; host or cells: HEK293
T2 sequence (P23385 19-1199 P58H/N264H): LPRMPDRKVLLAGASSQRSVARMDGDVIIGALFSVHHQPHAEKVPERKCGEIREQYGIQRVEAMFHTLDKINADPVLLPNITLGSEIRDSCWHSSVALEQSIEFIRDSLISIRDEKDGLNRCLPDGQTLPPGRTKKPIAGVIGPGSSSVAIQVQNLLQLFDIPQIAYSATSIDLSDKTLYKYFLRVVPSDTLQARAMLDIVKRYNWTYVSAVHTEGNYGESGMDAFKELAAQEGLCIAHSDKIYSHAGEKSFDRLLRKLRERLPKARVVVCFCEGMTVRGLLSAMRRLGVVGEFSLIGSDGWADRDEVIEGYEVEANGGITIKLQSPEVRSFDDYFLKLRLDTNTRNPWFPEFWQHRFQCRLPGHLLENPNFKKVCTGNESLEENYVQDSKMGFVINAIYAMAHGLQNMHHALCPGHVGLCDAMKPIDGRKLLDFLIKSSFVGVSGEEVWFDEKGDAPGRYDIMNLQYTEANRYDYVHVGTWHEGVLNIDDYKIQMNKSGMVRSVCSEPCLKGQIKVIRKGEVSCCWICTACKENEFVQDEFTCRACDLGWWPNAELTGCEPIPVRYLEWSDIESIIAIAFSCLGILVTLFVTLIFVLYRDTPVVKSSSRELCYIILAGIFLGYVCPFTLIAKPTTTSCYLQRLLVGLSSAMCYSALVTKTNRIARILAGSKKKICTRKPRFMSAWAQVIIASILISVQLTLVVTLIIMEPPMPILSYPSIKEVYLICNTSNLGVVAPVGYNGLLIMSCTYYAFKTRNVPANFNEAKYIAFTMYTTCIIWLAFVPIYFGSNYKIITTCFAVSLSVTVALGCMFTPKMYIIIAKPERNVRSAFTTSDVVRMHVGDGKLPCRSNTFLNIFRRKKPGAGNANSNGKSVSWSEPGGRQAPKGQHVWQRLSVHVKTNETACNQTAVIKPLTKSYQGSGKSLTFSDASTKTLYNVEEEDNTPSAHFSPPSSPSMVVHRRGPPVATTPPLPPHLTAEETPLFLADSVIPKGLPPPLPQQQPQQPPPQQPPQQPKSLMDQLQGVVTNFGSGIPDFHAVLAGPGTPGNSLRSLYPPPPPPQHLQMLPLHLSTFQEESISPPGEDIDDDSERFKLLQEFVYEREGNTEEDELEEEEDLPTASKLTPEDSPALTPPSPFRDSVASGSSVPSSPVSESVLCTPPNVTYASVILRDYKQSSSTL

mGlu1 A59H/N264H mutant = molecular target: T3, mGlu1 A59H/N264H mutant (Rattus norvegicus, UniProt P23385, A59H/N264H); experiment: Fura-2 Ca2+ imaging in HEK293 cells expressing mGlu1 A59H/N264H; format: cell-based
T3 construct: expressed in transfected cells; host or cells: HEK293
T3 sequence (P23385 19-1199 A59H/N264H): as the sequence (P23385 19-1199 P58H/N264H) above, with H40P, A41H counted along it

mGlu1 K61H/N264H mutant = molecular target: T4, mGlu1 K61H/N264H mutant (Rattus norvegicus, UniProt P23385, K61H/N264H); experiment: Fura-2 Ca2+ imaging in HEK293 cells expressing mGlu1 K61H/N264H; format: cell-based
T4 construct: expressed in transfected cells; host or cells: HEK293
T4 sequence (P23385 19-1199 K61H/N264H): as the sequence (P23385 19-1199 P58H/N264H) above, with H40P, K43H counted along it

mGlu1 P57H/N264H mutant = molecular target: T5, mGlu1 P57H/N264H mutant (Rattus norvegicus, UniProt P23385, N264H/P57H); experiment: Fura-2 Ca2+ imaging in HEK293 cells expressing mGlu1 P57H/N264H; format: cell-based
T5 construct: expressed in transfected cells; host or cells: HEK293
T5 sequence (P23385 19-1199 P57H/N264H): as the sequence (P23385 19-1199 P58H/N264H) above, with P39H, H40P counted along it

mGlu1 E60H/N264H mutant = molecular target: T6, mGlu1 E60H/N264H mutant (Rattus norvegicus, UniProt P23385, E60H/N264H); experiment: Fura-2 Ca2+ imaging in HEK293 cells expressing mGlu1 E60H/N264H; format: cell-based
T6 construct: expressed in transfected cells; host or cells: HEK293
T6 sequence (P23385 19-1199 E60H/N264H): as the sequence (P23385 19-1199 P58H/N264H) above, with H40P, E42H counted along it

[1] = tested on: HEK293 cells, vector control; experiment: Fura-2 Ca2+ imaging in HEK293 cells transfected with control vector (Vec); format: cell-based; settings: single-cell values #1-#20; on Ca2+ response of individual cells (source data Suppl Fig1), Vec: test concentration or dose not given here
[2] = tested on: mGlu1 construct not given; experiment: Fura-2 Ca2+ imaging in HEK293 cells, source data Suppl Fig1, left group (c0-c8); construct not given; format: cell-based, rat; settings: single-cell values, cells #15-#20; left group of third block
Excerpt: (§1) Supplement 41467_2022_30828_MOESM6_ESM.zip/Ojima et al_source data_Suppl Fig.xlsx, sheet "Suppl Fig1" | column: Glu; NiCl2; CuCl2; ZnCl2; CdCl2; Na2PdCl2; Pd(bpy)

[3] = tested on: HEK293 cells, vector control; experiment: Fura-2 Ca2+ imaging in HEK293 cells transfected with control vector (Vec); format: cell-based; settings: Fig.1e; on Ca2+ response of individual cells (source data Suppl Fig1), Vec: test concentration or dose not given here
Excerpt: Supplement 41467_2022_30828_MOESM6_ESM.zip/Ojima et al_source data_Main Figure.xlsx, sheet "Fig.1e" | column: Vec

mGlu1 A59H/A265H mutant [4] = molecular target: T7, mGlu1 A59H/A265H mutant (Rattus norvegicus, UniProt P23385, A265H/A59H); experiment: Fura-2 Ca2+ imaging in HEK293 cells expressing mGlu1 A59H/A265H; format: cell-based; settings: single-cell values
T7 construct: expressed in transfected cells; host or cells: HEK293
T7 sequence (P23385 19-1199 A59H/A265H): as the sequence (P23385 19-1199 P58H/N264H) above, with H40P, A41H, H246N, A247H counted along it

[5] = tested on: mGlu1 construct not given; experiment: Fura-2 Ca2+ imaging in HEK293 cells, source data Suppl Fig1, middle group (c9-c17); construct not given; format: cell-based, rat; settings: single-cell values, cells #15-#20; middle group of third block
Excerpt: as §1

mGlu1 A59H/A265H mutant [6] = molecular target: T7, mGlu1 A59H/A265H mutant; experiment: Fura-2 Ca2+ imaging in HEK293 cells expressing mGlu1 A59H/A265H; format: cell-based; settings: Fig.1e
mGlu1 A59H/G266H mutant [7] = molecular target: T8, mGlu1 A59H/G266H mutant (Rattus norvegicus, UniProt P23385, A59H/G266H); experiment: Fura-2 Ca2+ imaging in HEK293 cells expressing mGlu1 A59H/G266H; format: cell-based; settings: single-cell values; on Ca2+ response (delta ratio), A59H/G266H: test concentration or dose not given here
T8 construct: expressed in transfected cells; host or cells: HEK293
T8 sequence (P23385 19-1199 A59H/G266H): as the sequence (P23385 19-1199 P58H/N264H) above, with H40P, A41H, H246N, G248H counted along it

[8] = tested on: mGlu1 construct not given; experiment: Fura-2 Ca2+ imaging in HEK293 cells, source data Suppl Fig1, right group (c18-c26); construct not given; format: cell-based, rat; settings: single-cell values, cells #15-#20; right group of third block
Excerpt: as §1

mGlu1 A59H/G266H mutant [9] = molecular target: T8, mGlu1 A59H/G266H mutant; experiment: Fura-2 Ca2+ imaging in HEK293 cells expressing mGlu1 A59H/G266H; format: cell-based; settings: Fig.1e

T1 sequence (P23385 19-1199): as the sequence (P23385 19-1199 P58H/N264H) above, with H40P, H246N counted along it

[Cl][Cu][Cl] [CuCl2]
Ca2+ response (delta ratio), WT (WT mGlu1; Fig.1e): 0.02902 | Ca2+ response of individual cells (source data Suppl Fig1), WT (WT mGlu1; single-cell values #1-#20, WT): 0.02565 and 0.01115 and 0.003838 and 0.01123 and 0.01654 and 0.01648 and -0.004477 and -0.001046 and -0.0009077 and 0.04058 and 0.008923 and 0.1117 and -0.006138 and 0.001246 and 0.02892 and 0.05005 and 0.02387 and -0.0088 and -0.01073 and 0.2624 | Ca2+ response (delta ratio), P58H/N264H (mGlu1 P58H/N264H mutant; Fig.1e): -0.01421 | Ca2+ response of individual cells (source data Suppl Fig1), P58H/N264H (mGlu1 P58H/N264H mutant; single-cell values #1-#20, P58H/N264H): -0.02928 and 0.02135 and -0.1614 and -0.04317 and -0.03766 and -0.009985 and 0.06338 and -0.01091 and -0.1246 and -0.02604 and 0.008315 and -0.1403 and -0.007362 and 0.04025 and -0.04095 and 0.177 and 0.01632 and 0.001515 and 0.03036 and -0.0111 | Ca2+ response (delta ratio), A59H/N264H (mGlu1 A59H/N264H mutant; Fig.1e): -0.008971 | Ca2+ response of individual cells (source data Suppl Fig1), A59H/N264H (mGlu1 A59H/N264H mutant; single-cell values #1-#20, A59H/N264H): 0.01442 and -0.1061 and -0.004715 and -0.004738 and -0.008577 and -0.007731 and 0.0007462 and -0.01637 and -0.006738 and -0.004831 and 0.04273 and 0.05223 and 0.05741 and -0.09539 and -0.006538 and 0.01191 and -0.02261 and -0.005077 and -0.03944 and -0.03002 | Ca2+ response (delta ratio), K61H/N264H (mGlu1 K61H/N264H mutant; Fig.1e): -0.008802 | Ca2+ response of individual cells (source data Suppl Fig1), K61H/N264H (mGlu1 K61H/N264H mutant; single-cell values, K61H/N264H): -0.02337 and 0.01083 and -0.01322 and 0.006669 and -0.02188 and -0.01248 and -0.01492 and -0.01697 and -0.01238 and 0.05283 and -0.01893 and -0.01583 and -0.01651 and -0.01879 | Ca2+ response (delta ratio), P57H/N264H (mGlu1 P57H/N264H mutant; Fig.1e): 0.007634 | Ca2+ response of individual cells (source data Suppl Fig1), P57H/N264H (mGlu1 P57H/N264H mutant; single-cell values #1-#20, P57H/N264H): -0.009615 and 0.002477 and 0.01378 and 0.02434 and 0.0008462 and 0.008 and -0.0007 and 0.008062 and 0.01831 and -0.0008538 and 0.01338 and 0.01485 and 0.01 and 0.001692 and -0.005731 and 0.03126 and 0.0103 and 0.01328 and -0.004977 and 0.003977 | Ca2+ response (delta ratio), E60H/N264H (mGlu1 E60H/N264H mutant; Fig.1e): -0.0006131 | Ca2+ response of individual cells (source data Suppl Fig1), E60H/N264H (mGlu1 E60H/N264H mutant; single-cell values #1-#20, E60H/N264H): 0.001946 and 0.001985 and -0.004585 and 0.05012 and -0.01047 and -0.007438 and -0.008146 and -0.01882 and 0.02938 and -0.02675 and -0.0009231 and -0.009708 and 0.06405 and 0.006685 and -0.01392 and -0.007992 and -0.007615 and -0.01812 and -0.013 and -0.01895 | Ca2+ response of individual cells (source data Suppl Fig1), Vec [1]: 0.02461 and -0.003092 and 0.01753 and 0.02088 and 0.01475 and -0.003385 and 0.07142 and 0.01504 and 0.02807 and 0.04525 and 0.001746 and 0.01458 and 0.01948 and -0.006131 and 0.04009 and 0.01931 and 0.02889 and 0.01229 and -0.005492 and -0.004385 | Ca2+ response of individual cells (source data, sheet Suppl Fig1) [2]: 0.006485 and -0.01132 and -0.01643 and -0.02029 and -0.01602 and -0.0035 | Ca2+ response (delta ratio), Vec [3]: 0.01757 | Ca2+ response of individual cells (source data Suppl Fig1), A59H/A265H (mGlu1 A59H/A265H mutant [4]): -0.01552 and 0.009746 and -0.01265 and -0.0065 and 0.009708 and -0.002746 and 0.009762 and -0.01072 and 0.004462 and -0.01463 and 0.01478 and 0.0025 and 0.01092 and -0.009138 | Ca2+ response of individual cells (source data, sheet Suppl Fig1) [5]: -0.002923 and 0.002562 and 0.004815 and -0.0036 and -0.004154 and 0.002577 | Ca2+ response (delta ratio), A59H/A265H (mGlu1 A59H/A265H mutant [6]): -0.0005365 | Ca2+ response of individual cells (source data Suppl Fig1), A59H/G266H (mGlu1 A59H/G266H mutant [7]): -0.005931 and -0.06262 and 0.006338 and -0.05078 and -0.003546 and -0.0521 and 0.002277 and -0.02358 and 0.04298 and -0.0436 and -0.1049 and -0.001831 and 0.0158 and -0.01046 | Ca2+ response of individual cells (source data, sheet Suppl Fig1) [8]: -0.007831 and 0.008223 and -0.0022 and 0.006269 and -0.002515 and 0.01038 | Ca2+ response (delta ratio), A59H/G266H (mGlu1 A59H/G266H mutant [9]): -0.01398
